Data taken from ChEMBL document CHEMBL1201862, “PubChem BioAssay data set” (2004).
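Briefly, cells in 96-well plates were exposed to five compound concentrations for 48 h, and endpoints were estimated by linear interpolation. Here, GI50 denotes the concentration required for 50% inhibition of growth.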 The source made the active and inactive calls. Cut-off read from the data, not from the text of the source: active = GI50 up to about 1.1 µM and inactive = higher.

Tests used:
Assay in all cases: DTP human tumour cell line panel, 48 h
U-251 = tested on: U-251
HT-29 = tested on: HT-29
Malme-3M = tested on: Malme-3M
SK-MEL-28 = tested on: SK-MEL-28
K562 = tested on: K562
SF-539 = tested on: SF-539
OVCAR-3 = tested on: OVCAR-3
UO-31 = tested on: UO-31
HOP-62 = tested on: HOP-62
HL-60 = tested on: HL-60
ACHN = tested on: ACHN
SF-268 = tested on: SF-268
SN12C = tested on: SN12C
COLO 205 = tested on: COLO 205

Measured: GI50

CCC(C)(C)NS(=O)(=O)c1ccccc1
inactive: U-251 > 100 µM | HT-29 > 100 µM | Malme-3M > 100 µM | SK-MEL-28 > 100 µM | K562 > 100 µM | SF-539 > 100 µM | OVCAR-3 > 100 µM | UO-31 > 100 µM | HOP-62 > 100 µM | HL-60 > 100 µM | ACHN > 100 µM

N#C/C(c1nc2ccccc2[nH]1)=c1\s/c(=C/c2ccccc2)c(=O)n1-c1ccccc1
inactive: U-251 > 100 µM | SF-268 > 100 µM | Malme-3M > 100 µM | SK-MEL-28 > 100 µM | K562 > 100 µM | SF-539 > 100 µM | OVCAR-3 > 100 µM | UO-31 > 100 µM | SN12C > 100 µM | COLO 205 > 100 µM | HOP-62 > 100 µM | HL-60 > 100 µM | ACHN > 100 µM

CN(C)C(=S)/N=c1\ss/c(=N/c2ccccc2)n1C
inactive: U-251 46.7 µM | HT-29 > 100 µM | SF-268 27.2 µM | Malme-3M 40.5 µM | SK-MEL-28 64.3 µM | K562 > 100 µM | SF-539 22.7 µM | UO-31 > 100 µM | SN12C > 100 µM | HOP-62 48.1 µM | HL-60 > 100 µM | ACHN > 100 µM

COc1ccc(CNc2cc(OC)cc(OC)c2)cc1
inactive: U-251 > 88.5 µM | SF-268 33.9 µM | Malme-3M > 56.6 µM | SK-MEL-28 51.5 µM | K562 29.8 µM | OVCAR-3 50.8 µM | UO-31 29.7 µM | COLO 205 > 100 µM | HOP-62 > 61.5 µM | HL-60 > 39.2 µM | ACHN > 69.3 µM

CCCCCCCCCCNC(=S)OCCCC
inactive: U-251 19.5 µM | HT-29 19.5 µM | SF-268 22.8 µM | Malme-3M 27.7 µM | SK-MEL-28 25.8 µM | K562 18.5 µM | SF-539 21.7 µM | UO-31 23.5 µM | SN12C 19.7 µM | HOP-62 27.2 µM | HL-60 14.3 µM | ACHN 28.1 µM

CSC1(C)CC2C(CC1N1CCOCC1)C2(C)C (centres undefined)
inactive: U-251 > 100 µM | HT-29 > 100 µM | SF-268 > 100 µM | Malme-3M > 100 µM | SK-MEL-28 > 100 µM | K562 > 100 µM | SF-539 > 100 µM | OVCAR-3 > 100 µM | UO-31 > 100 µM | SN12C > 100 µM | COLO 205 > 100 µM | HL-60 > 100 µM | ACHN > 100 µM

CC(=O)Oc1cc(C)c2c(c1OC(C)=O)CC1(O2)[C@@H](C)CCC2[C@@]3(C)CC[C@H](OC(C)=O)C(C)(C)C3CC[C@]21C (some centres undefined)
inactive: U-251 3.33 µM | HT-29 5.43 µM | SF-268 3.37 µM | Malme-3M 2.86 µM | SK-MEL-28 4.41 µM | SF-539 2.81 µM | OVCAR-3 2.72 µM | UO-31 1.99 µM | SN12C 2.98 µM | COLO 205 1.63 µM | HOP-62 2.65 µM | ACHN 1.67 µM

CC1(C)C(=O)C(C)(C)C1=NN
inactive: U-251 > 100 µM | HT-29 > 100 µM | SF-268 > 100 µM | Malme-3M > 100 µM | SK-MEL-28 > 100 µM | K562 > 100 µM | SF-539 > 100 µM | OVCAR-3 > 100 µM | UO-31 > 100 µM | SN12C > 100 µM | COLO 205 > 100 µM | HOP-62 > 100 µM | HL-60 > 100 µM | ACHN > 100 µM

O=c1c(O)cccn1C1OC(CO)C(O)C1O (centres undefined)
inactive: U-251 > 100 µM | HT-29 > 100 µM | SF-268 > 100 µM | Malme-3M > 100 µM | SK-MEL-28 > 100 µM | K562 > 100 µM | UO-31 > 100 µM | SN12C > 100 µM | COLO 205 > 100 µM | ACHN > 100 µM

CC(C)CCC[C@@H](C)C1CCC2[C@@H]3CC=C4C[C@@H](C(=O)NCCN(C)C)CC[C@]4(C)C3CC[C@@]21C (some centres undefined)
inactive: U-251 30 µM | HT-29 34.2 µM | SF-268 36 µM | Malme-3M 28.9 µM | SK-MEL-28 35.2 µM | K562 33 µM | SF-539 17.1 µM | OVCAR-3 31.4 µM | UO-31 23.1 µM | SN12C 19.4 µM | COLO 205 19.5 µM | HOP-62 18.9 µM | HL-60 45.8 µM | ACHN 35.8 µM

COc1ccc(C[C@]23CCC(=O)N2CCc2cc(OC)c(O)cc23)cc1O
inactive: HT-29 > 100 µM | SF-268 > 100 µM | Malme-3M > 100 µM | SK-MEL-28 > 100 µM | K562 > 100 µM | SF-539 > 100 µM | OVCAR-3 > 100 µM | UO-31 > 100 µM | SN12C > 100 µM | COLO 205 > 100 µM | HOP-62 > 100 µM | HL-60 > 100 µM | ACHN > 100 µM

N#C/N=C(\NCCc1c[nH]c2ccccc12)NCc1ccccc1
inactive: U-251 35.2 µM | HT-29 37.8 µM | SF-268 > 100 µM | SK-MEL-28 80.7 µM | K562 42.8 µM | SF-539 > 100 µM | OVCAR-3 42.8 µM | UO-31 20.5 µM | SN12C 93.8 µM | COLO 205 61 µM | HOP-62 > 100 µM | HL-60 27.5 µM | ACHN 25.4 µM

Clc1cc(Cc2cc(Cl)c(Cl)c3c2OCOC3)c2c(c1Cl)COCO2
inactive: U-251 29.1 µM | HT-29 > 100 µM | SF-268 > 100 µM | Malme-3M 40.6 µM | SK-MEL-28 > 100 µM | K562 43.9 µM | SF-539 17.8 µM | OVCAR-3 25.3 µM | UO-31 34.6 µM | SN12C 58.6 µM | COLO 205 70 µM | HOP-62 25.8 µM | HL-60 93.1 µM | ACHN 32.4 µM

COc1cc(Br)c(CC2=NCCc3cc(OC)c(OC)cc32)cc1OC
inactive: U-251 11.3 µM | HT-29 2.16 µM | SF-268 51.2 µM | Malme-3M 25.9 µM | SK-MEL-28 19.7 µM | K562 5.4 µM | SF-539 11.7 µM | OVCAR-3 42.9 µM | UO-31 11.3 µM | SN12C 15.3 µM | COLO 205 14.1 µM | HOP-62 > 100 µM | HL-60 2.33 µM | ACHN 14.8 µM

O=C(c1cccs1)N(C(=S)N1CCN(c2ccccn2)CC1)C1CCCCC1
inactive: U-251 79.1 µM | HT-29 52 µM | SF-268 > 100 µM | Malme-3M 36.3 µM | SK-MEL-28 > 100 µM | K562 47 µM | SF-539 > 100 µM | OVCAR-3 57.3 µM | UO-31 44.4 µM | SN12C > 100 µM | COLO 205 22.4 µM | HOP-62 > 100 µM | HL-60 > 100 µM | ACHN 69.2 µM

O=C(CSc1nnc(Cc2ccccc2)o1)Nc1ccccc1Cl
inactive: U-251 > 100 µM | HT-29 > 100 µM | SF-268 > 100 µM | Malme-3M > 100 µM | SK-MEL-28 > 100 µM | K562 > 100 µM | SF-539 > 100 µM | OVCAR-3 > 100 µM | UO-31 > 100 µM | SN12C > 100 µM | COLO 205 > 100 µM | HOP-62 > 100 µM | HL-60 > 100 µM | ACHN > 100 µM

COc1ccc(C(CCC(C)=O)C(=O)O)cc1OC (centres undefined)
inactive: U-251 > 100 µM | HT-29 > 100 µM | SF-268 > 100 µM | Malme-3M > 100 µM | SK-MEL-28 > 100 µM | K562 > 100 µM | SF-539 > 100 µM | OVCAR-3 > 100 µM | SN12C > 100 µM | COLO 205 > 100 µM | HOP-62 > 100 µM | ACHN > 100 µM

Cc1cc(O)c2c(c1)OC1(C)CCC3C(C)(C)CCCC34COC2C14 (centres undefined)
inactive: SF-268 13.6 µM | Malme-3M 13.3 µM | K562 20.8 µM | SF-539 6.43 µM | OVCAR-3 13.4 µM | UO-31 16.7 µM | SN12C 16.7 µM | COLO 205 14.4 µM | HOP-62 14.1 µM | HL-60 16.6 µM | ACHN 12.7 µM

Cc1cc2nc3c(C(OC4OC(CO)C(O)C(O)C4O)C(O)CO)nn(-c4ccccc4)c3nc2cc1C (centres undefined)
inactive: U-251 > 100 µM | HT-29 > 100 µM | SF-268 > 100 µM | Malme-3M > 100 µM | SK-MEL-28 > 100 µM | K562 > 100 µM | SF-539 > 100 µM | OVCAR-3 > 100 µM | UO-31 > 100 µM | SN12C > 100 µM | HOP-62 > 100 µM | ACHN > 100 µM

CCSC(SCC)=C1C(=O)N(c2ccccc2)N=C1C
inactive: HT-29 19.1 µM | SF-268 14.1 µM | Malme-3M 10.4 µM | SK-MEL-28 12.9 µM | K562 5.71 µM | OVCAR-3 4.67 µM | UO-31 15.6 µM | SN12C 16.1 µM | COLO 205 2.27 µM | HOP-62 23.3 µM | HL-60 2.33 µM | ACHN 15.7 µM

O=[N+]([O-])c1ccc(OCCNc2cccc3ccccc23)cc1
inactive: U-251 94.6 µM | HT-29 85.5 µM | SF-268 > 100 µM | Malme-3M > 100 µM | SK-MEL-28 > 100 µM | K562 18.6 µM | SF-539 > 100 µM | OVCAR-3 > 100 µM | UO-31 92.9 µM | SN12C > 100 µM | COLO 205 > 100 µM | HOP-62 > 100 µM | ACHN > 100 µM
